The target of one assay is B-Raf V600E (Homo sapiens (Human), UniProt P15056, V600E). Nature of the assay: B-Raf V600E kinase biochemical activity assay (AlphaScreen, biotin-MEK1 substrate). Particulars: 100 μM ATP. Summed up: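 IC50 was derived from AlphaScreen signal (anti-phospho-MEK1/2 antibody with streptavidin donor and Protein A acceptor beads, 3 h) across 8 compound concentrations. The kinase step ran 45 min at room temperature: 0.1 ng B-Raf V600E, 100 nM biotin-MEK1, 100 μM final ATP, pH 7.0 HEPES with MgCl2/MnCl2.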
B-Raf V600E, sequence (P15056 whole entry V600E): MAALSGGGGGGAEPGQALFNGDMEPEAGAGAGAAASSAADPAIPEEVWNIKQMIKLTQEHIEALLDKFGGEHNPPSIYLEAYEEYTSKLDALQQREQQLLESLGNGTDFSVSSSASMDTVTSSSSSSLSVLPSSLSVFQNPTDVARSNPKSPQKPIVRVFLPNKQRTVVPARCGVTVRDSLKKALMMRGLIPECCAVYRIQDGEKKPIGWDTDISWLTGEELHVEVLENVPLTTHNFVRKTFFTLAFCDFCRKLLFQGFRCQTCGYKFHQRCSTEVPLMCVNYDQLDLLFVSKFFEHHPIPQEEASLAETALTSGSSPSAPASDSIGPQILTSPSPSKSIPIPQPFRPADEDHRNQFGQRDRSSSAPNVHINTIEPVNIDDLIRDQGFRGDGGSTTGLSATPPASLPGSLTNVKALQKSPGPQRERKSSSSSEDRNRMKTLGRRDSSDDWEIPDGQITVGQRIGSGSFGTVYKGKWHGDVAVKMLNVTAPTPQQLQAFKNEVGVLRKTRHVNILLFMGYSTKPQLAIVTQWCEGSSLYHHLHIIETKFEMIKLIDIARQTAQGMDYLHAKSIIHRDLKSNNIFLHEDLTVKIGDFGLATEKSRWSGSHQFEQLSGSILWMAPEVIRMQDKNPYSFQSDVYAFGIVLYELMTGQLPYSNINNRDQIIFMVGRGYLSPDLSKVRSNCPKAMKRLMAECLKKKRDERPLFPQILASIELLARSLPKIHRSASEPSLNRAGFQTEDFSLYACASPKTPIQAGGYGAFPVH

In assay [1] the test system is IPC-298 human melanoma cell line that expresses activated NRAS. Nature of the assay: IPC-298_P-ERK cell activation assay (phosphorylated ERK, AlphaScreen). The format is cell-based. Particulars: 1 h, IPC-298 cells, P-ERK activation, compound for one hour. As for the experimental part:
B9 is a squamous cell carcinoma cell line expressing activated HRAS that was isolated from a DMBA/TPA-induced mouse model of skin carcinogenesis (Stoler, et al. The Journal of Cell Biology, 1993, 122(5), 1103-17). IPC-298 is a human melanoma cell line that expresses activated NRAS (Aubert, et al. International Journal of Cancer, 1993, 54(5), 784-92). To determine whether compounds induce phosphorylated ERK and MEK, cells are plated in a 96-well dish and treated with an 8-point titration of compound for one hour at 37° C. The media is then removed and the cells are incubated with lysis buffer containing protease and phosphatase inhibitors. Phosphorylated ERK and MEK in the resulting lysates is detected using AlphaScreen™ technology. To detect phosphorylated ERK, cell lysates are incubated with streptavidin-coated donor beads, anti-mouse IgG acceptor beads, a biotinylated anti-ERK1/2 rabbit antibody, and a mouse antibody that recognizes ERK1/2 only when it is phosphorylated on Thr202 and Tyr204. The biotinylated ERK1/2 antibody will bind to both the streptavidin-coated donor beads and to ERK1/2 (regardless of its phosphorylation state), and the phospho-ERK1/2 antibody will bind to the acceptor beads and to ERK1/2 that is phosphorylated at Thr202/Tyr204. Excitation of the beads with laser light at 680 nm produces singlet oxygen, which is rapidly quenched unless the beads are in close proximity. When ERK is phosphorylated, both antibodies can bind the same protein, bringing the donor and acceptor beads into close proximity, producing a signal that can be measured at 580 nm. MEK phosphorylation is detected using a similar approach, only with antibodies directed against total MEK1/2 and MEK1/2 that is phosphorylated at Ser217 and Ser221.
A general note: In Alpha technology, singlet oxygen from a donor bead excites a nearby acceptor bead.

The test system of assay [2] is COLO205 colon adenocarcinoma cells (B-Raf V600E mutation). Put plainly: COLO205 cell growth inhibition (ATPlite). The format is cell-based. Particulars: Homo sapiens, COLO 205, 72 h, 3 days. Summed up:
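Cells treated for 3 days at 37 °C, 5% CO2 with an 8-point 1:3 dilution series, top final concentration 10 μM, DMSO control. ATPlite luminescence used as a measure of cell number; IC50 from reading versus concentration.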

For assay [3], the system named is A375 melanoma cells (B-Raf V600E mutation). Put plainly: A375 (A375_P-ERK) cell activity / cell growth inhibition. The class given is cell-based. To be noted: Homo sapiens, A-375. As for the experimental part:
Compounds are assessed in a variety of cell based assays.
On day 1, cells are counted, then centrifuged in a conical tube for 5 minutes at 1000 rpm.
On day 2, compound at a maximum concentration of 5 mM is serially diluted 1:3 (e.g. 10 μL with 30 μL dimethyl sulfoxide) for a total of 8 point titration with DMSO as a control. A 1 μL aliquot of each dilution point and control is added to 249 μL growth media and 50 μL is added to a well containing cells, providing 10 μM compound at the maximum concentration point. The cells are incubated for 3 days at 37° C. in 5% CO2.
ATPlite is added 25 μL to each well, shake for 2 minutes, and the cells are incubated at room temperature for 10 minutes, then luminescence is read on Safire reader. The measured luminescence correlates directly with cell number, such that the reading as a function of compound concentration is used to determine the IC50 value.

A value given as a limit tells only on which side of the number the result lay.

For the compound `N#CC1(c2ccc(-c3cnc4[nH]cc(C(=O)c5cccc(NS(=O)(=O)N6CCCC6)c5F)c4c3)cc2)CC1` [Compound P-0050, N-[3-[5-[4-(1-cyanocyclopropyl)phenyl]-1H-pyrrolo[2,3-b]pyridine-3-carbonyl]-2-fluoro-phenyl]pyrrolidine-1-sulfonamide], the results for the IC50 (at B-Raf V600E; in assay [2]) were under 0.1 µM and under 1 µM, respectively. Moreover, the EC50 in assay [1] is over 10 µM.

Take `CC(C)c1ncc(-c2cnc3[nH]cc(C(=O)c4cccc(NS(=O)(=O)N(C)C)c4F)c3c2)cn1` [Compound P-0051, 3-[3-(dimethylsulfamoylamino)-2-fluoro-benzoyl]-5-(2-isopropylpyrimidin-5-yl)-1H-pyrrolo[2,3-b]pyridine]: the IC50 at B-Raf V600E is under 0.1 µM; in assay [2], under 1 µM. In assay [1], this compound gave a half-maximal effective concentration (EC50) of over 10 µM.

For `CN(C)S(=O)(=O)Nc1cccc(C(=O)c2c[nH]c3ncc(-c4cnc(C5CC5)nc4)cc23)c1F` [Compound P-0052, 5-(2-cyclopropylpyrimidin-5-yl)-3-[3-(dimethylsulfamoylamino)-2-fluoro-benzoyl]-1H-pyrrolo[2,3-b]pyridine], the IC50 against B-Raf V600E is under 0.1 µM; in assay [2] it was under 1 µM. This compound had an EC50 in assay [1] of over 10 µM.

Regarding `CN(C)S(=O)(=O)Nc1cccc(C(=O)c2c[nH]c3ncc(-c4ccc(C(F)(F)F)nc4)cc23)c1F` [Compound P-0053, 3-[3-(dimethylsulfamoylamino)-2-fluoro-benzoyl]-5-[6-(trifluoromethyl)-3-pyridyl]-1H-pyrrolo[2,3-b]pyridine], the IC50 is under 0.1 µM against B-Raf V600E and under 1 µM in assay [2]. Moreover, the EC50 in assay [1] is over 10 µM.

For `COc1cc(-c2cnc3[nH]cc(C(=O)c4cccc(NS(=O)(=O)N(C)C)c4F)c3c2)ccc1C#N` [Compound P-0054, 5-(4-cyano-3-methoxy-phenyl)-3-[3-(dimethylsulfamoylamino)-2-fluoro-benzoyl]-1H-pyrrolo[2,3-b]pyridine], the IC50 against B-Raf V600E is under 0.1 µM; in assay [2], over 1 µM. The compound also yielded an EC50 in assay [1] of over 1 µM.

Consider `CN(C)S(=O)(=O)Nc1cccc(C(=O)c2c[nH]c3ncc(-c4ccc(C5(C#N)CC5)cc4)cc23)c1F` [Compound P-0055, 5-[4-(1-cyanocyclopropyl)phenyl]-3-[3-(dimethylsulfamoylamino)-2-fluoro-benzoyl]-1H-pyrrolo[2,3-b]pyridine], for which the values for the IC50 (against B-Raf V600E; in assay [2]) were under 0.1 µM and under 1 µM, respectively. This compound also displayed an EC50 in assay [1] of over 10 µM.

Regarding `CCN(C)S(=O)(=O)Nc1cccc(C(=O)c2c[nH]c3ncc(-c4cnc(C)nc4)cc23)c1F` [Compound P-0056, 3-[3-[[ethyl(methyl)sulfamoyl]amino]-2-fluoro-benzoyl]-5-(2-methylpyrimidin-5-yl)-1H-pyrrolo[2,3-b]pyridine], the IC50 at B-Raf V600E was under 0.1 µM; in assay [2], under 1 µM. Further, the EC50 in assay [1] was over 10 µM.

As for `CCN(C)S(=O)(=O)Nc1cccc(C(=O)c2c[nH]c3ncc(-c4cnc(C(C)C)nc4)cc23)c1F` [Compound P-0057, 3-[3-[[ethyl(methyl)sulfamoyl]amino]-2-fluoro-benzoyl]-5-(2-isopropylpyrimidin-5-yl)-1H-pyrrolo[2,3-b]pyridine], the IC50 is under 0.1 µM on B-Raf V600E and under 1 µM in assay [2]. Also, in assay [1], the EC50 is over 10 µM.

Take `CCN(C)S(=O)(=O)Nc1cccc(C(=O)c2c[nH]c3ncc(-c4cnc(C5CC5)nc4)cc23)c1F` [Compound P-0058, 5-(2-cyclopropylpyrimidin-5-yl)-3-[3-[[ethyl(methyl)sulfamoyl]amino]-2-fluoro-benzoyl]-1H-pyrrolo[2,3-b]pyridine]: the figures for the IC50 (at B-Raf V600E; in assay [2]) were under 0.1 µM and under 1 µM, respectively. This compound also had an EC50 in assay [1] of over 10 µM.

Take `CCN(C)S(=O)(=O)Nc1cccc(C(=O)c2c[nH]c3ncc(-c4ccc(C(F)(F)F)nc4)cc23)c1F` [Compound P-0059, 3-[3-[[ethyl(methyl)sulfamoyl]amino]-2-fluoro-benzoyl]-5-[6-(trifluoromethyl)-3-pyridyl]-1H-pyrrolo[2,3-b]pyridine]: the figures for the IC50 (at B-Raf V600E; in assay [2]) were under 0.1 µM and under 1 µM, respectively. Also, in assay [1], the EC50 was over 10 µM.

As to `CCN(C)S(=O)(=O)Nc1cccc(C(=O)c2c[nH]c3ncc(-c4ccc(C#N)c(OC)c4)cc23)c1F` [Compound P-0060, 5-(4-cyano-3-methoxy-phenyl)-3-[3-[[ethyl(methyl)sulfamoyl]amino]-2-fluoro-benzoyl]-1H-pyrrolo[2,3-b]pyridine], the values for the IC50 (against B-Raf V600E; in assay [2]) were under 0.1 µM and under 1 µM, respectively. Besides, in assay [1], the concentration giving a half-maximal response (EC50) was over 2 µM.

With `O=C(c1cccc(NS(=O)(=O)N2CCCC2)c1F)c1c[nH]c2ncc(-c3ccc(F)cc3)cc12` [Compound P-0062, N-[2-fluoro-3-[5-(4-fluorophenyl)-1H-pyrrolo[2,3-b]pyridine-3-carbonyl]phenyl]pyrrolidine-1-sulfonamide], the values for the IC50 (at B-Raf V600E; in assay [2]) were under 0.1 µM and under 1 µM, respectively. The EC50 in assay [1] was over 10 µM.

For `O=C(c1cccc(NS(=O)(=O)N2CCCC2)c1F)c1c[nH]c2ncc(-c3ccccc3)cc12` [Compound P-0063, N-[2-fluoro-3-(5-phenyl-1H-pyrrolo[2,3-b]pyridine-3-carbonyl)phenyl]pyrrolidine-1-sulfonamide], the IC50 against B-Raf V600E was under 0.1 µM; in assay [2] it was under 1 µM. The same compound displayed an EC50 in assay [1] of over 10 µM.

Consider `CN(C)S(=O)(=O)Nc1cccc(C(=O)c2c[nH]c3ncc(-c4cnc(NC5CC5)nc4)cc23)c1F` [Compound P-0064, 5-[2-(cyclopropylamino)pyrimidin-5-yl]-3-[3-(dimethylsulfamoylamino)-2-fluoro-benzoyl]-1H-pyrrolo[2,3-b]pyridine], for which the IC50 was under 0.1 µM at B-Raf V600E and under 1 µM in assay [2]. This compound also came in with an EC50 in assay [1] of over 10 µM.

Take `CC(C)N(C)S(=O)(=O)Nc1cccc(C(=O)c2c[nH]c3ncc(-c4cnc(C5CC5)nc4)cc23)c1F` [Compound P-0233, 5-(2-cyclopropylpyrimidin-5-yl)-3-[2-fluoro-3-[[isopropyl(methyl)sulfamoyl]amino]benzoyl]-1H-pyrrolo[2,3-b]pyridine]: the figures for the IC50 (against B-Raf V600E; in assay [3]; in assay [2]) were under 0.1 µM, over 1 µM and over 1 µM, respectively.

Take `CC(C)(O)c1nc(-c2cnc3[nH]cc(C(=O)c4c(F)ccc(NS(=O)(=O)N5CCCC5)c4F)c3c2)cs1` [Compound P-0265, N-[2,4-difluoro-3-[5-[2-(1-hydroxy-1-methyl-ethyl)thiazol-4-yl]-1H-pyrrolo[2,3-b]pyridine-3-carbonyl]phenyl]pyrrolidine-1-sulfonamide]: the IC50 is under 0.1 µM against B-Raf V600E and under 1 µM in assay [2]. In addition, the EC50 in assay [1] is over 2 µM.

`O=C(c1c(F)ccc(NS(=O)(=O)N2CCCC2)c1F)c1c[nH]c2ncc(-c3ccnc(C4CC4)c3)cc12` [Compound P-0295, N-[3-[5-(2-cyclopropyl-4-pyridyl)-1H-pyrrolo[2,3-b]pyridine-3-carbonyl]-2,4-difluoro-phenyl]pyrrolidine-1-sulfonamide]: the IC50 was under 0.1 µM against B-Raf V600E and under 1 µM in assay [2]. This compound showed an EC50 in assay [1] of over 2 µM.

With `CNS(=O)(=O)Nc1ccc(F)c(C(=O)c2c[nH]c3ncc(-c4cnc(C5CC5)nc4)cc23)c1F` [Compound P-0334, [5-(2-cyclopropylpyrimidin-5-yl)-1H-pyrrolo[2,3-b]pyridin-3-yl]-[2,6-difluoro-3-(methylsulfamoylamino)phenyl]methanone], the figures for the IC50 (on B-Raf V600E; in assay [2]) were under 0.1 µM and over 1 µM, respectively. In addition, the EC50 in assay [1] was over 2 µM.

The IC50 is the concentration that inhibits the measured activity by half. Lower therefore signals greater potency. One may read the EC50 as the midpoint of the concentration-response curve. Higher therefore signals a need for much substance.
